Assay results: patent publication US9005939B2, “Protoilludene synthase” (priority 2010, dated 2015)

Key:
[1] = biological target: T1, Pro1 (A. gallica protoilludene synthase) expressed in Escherichia coli (Armillaria gallica, UniProt P0DL13); assay: Sesquiterpene synthase activity of crude soluble protein extract of E. coli expressing Pro1 (radio-TLC); format: biochemical; details: same Pro1 lysate incubated with diterpene synthase substrate
T1 construct: A. gallica protoilludene synthase (clone Pro1); made in house; host or cells: E. coli BL21 (DE3) CodonPlus, vector pDEST14; crude soluble lysate
Procedure: Escherichia coli protein extracts were prepared by resolving the cell pellet from cultivation in the described extraction puffer and cells were lysed under constant cooling by two rounds of Microfluidizer treatment.
Part of the organic extract was then spotted onto silica-gel TLC plates and separated using 9:1 cyclohexane:ethyl acetate as the solvent, prior to analysis in a radio-TLC reader (Raytest, Straubenhardt). For the determination of KM values the reactions were stopped by quenching with 100 mM EDTA (final concentration) followed by extraction with n-pentane, purification by silica gel column chromatography and quantitation by liquid scintillation counting. All kinetic activity assays were performed in triplicate. Mass spectrometry analysis of solvent extracts was performed on a QP2010S quadrupole mass spectrometer (Shimadzu) equipped with an Rxi™-5 ms (0.25 mm ID, 30 m length) column (Restek) using the following temperature program: 80° C. for 20 min, followed by heating the column at an rate of 15° C./min to 300° C. with a final constant temperature of 300° C. for 4 min. Fragmentation was achieved by electric ionization at […].
Where cDNA sequencing identified potential terpene synthase clones, the corresponding pENTRY vectors were used in LR recombination reactions involving the pDEST14 destination vector. […]

[2] = biological target: A. gallica protoilludene synthase (Armillaria gallica, UniProt P0DL13); format: biochemical

CC(C)=CCC/C(C)=C/CC/C(C)=C/CC/C(C)=C/COP(=O)(O)OP(=O)(O)O [gernaylgeranyl diphosphate, geranylgeranyl diphosphate]
substrate converted into less polar product [1]: < 1%

CCO [ethanol]
effect on enzyme activity [2]: dramatic reduction in activity

[Cl][Mn][Cl] [MnCl2]
fall of protoilludene synthase activity ([2]; 5 mM MgCl2 replaced with MnCl2, relative to highest activity with MgCl2): 75%
